Data: PubChem BioAssay AID298 (DTP/NCI, 2004)
Inconclusive results are not listed.

Tested on: MX-1 breast xenograft, intrarenal, nude mice, tumor weight
Assay: NCI In Vivo Anticancer Drug Screen. Data for tumor model Human Mammary Carcinoma MX-1 Xenograft (intrarenal inoculation) in NU/NU BALB/C (nude) mice
Conditions: endpoint: mean tumor weight change, higher = larger tumour
Procedure: The antitumor activity of compounds was measured in mice bearing transplantable tumors. Survival or tumor size were measured and the results are expressed as the measurement made in the treated group (T) divided by the measurement made in the vehicle treated control group (C). The tumor model used in this assay is Human Mammary Carcinoma MX-1 Xenograft (intrarenal inoculation) in NU/NU BALB/C (nude) mice

[1] = dose: 300.0 mg/kg/injection, schedule: Q04DX003 (sc), vehicle: Klucel (hydroxypropylcellulose) (HPC)
[2] = dose: 600.0 mg/kg/injection, schedule: Q04DX003 (sc), vehicle: Klucel (hydroxypropylcellulose) (HPC)
[3] = dose: 1200.0 mg/kg/injection, schedule: Q04DX003 (sc), vehicle: Klucel (hydroxypropylcellulose) (HPC)

O=C(O)CC(=O)O.[NH-]CC[NH-].[Pt+2]
T/C (dose: 25.0 mg/kg/injection, schedule: Q01DX010 (sc), vehicle: dextrose): -6 % of control | T/C (dose: 50.0 mg/kg/injection, schedule: Q01DX010 (sc), vehicle: dextrose): -85 % of control

COc1c(C=O)c2c(c(OC)c1OC)-c1ccc(OC)c(=O)cc1[C@@H](NC(C)=O)CC2
T/C (dose: 9.37 mg/kg/injection, schedule: Q04DX003 (sc), vehicle: Klucel (hydroxypropylcellulose) (HPC)): 62 % of control | T/C (dose: 18.75 mg/kg/injection, schedule: Q04DX003 (sc), vehicle: Klucel (hydroxypropylcellulose) (HPC)): 40 % of control | T/C (dose: 37.5 mg/kg/injection, schedule: Q04DX003 (sc), vehicle: Klucel (hydroxypropylcellulose) (HPC)): 13 % of control

O=C1[C@@H]2C3C=CC([C@H]4C(=O)N(CO)C(=O)[C@@H]34)[C@@H]2C(=O)N1CO
T/C (dose: 100.0 mg/kg/injection, schedule: Q04DX003 (ip), vehicle: Klucel (hydroxypropylcellulose) (HPC)): 78 % of control | T/C (dose: 200.0 mg/kg/injection, schedule: Q04DX003 (ip), vehicle: Klucel (hydroxypropylcellulose) (HPC)): 52 % of control

O=C(O)[C@H](Cc1ccccc1)N1C(=O)c2ccccc2C1=O
T/C (dose: 150.0 mg/kg/injection, schedule: Q04DX003 (ip), vehicle: DMSO): 77 % of control | T/C (dose: 300.0 mg/kg/injection, schedule: Q04DX003 (ip), vehicle: DMSO): 60 % of control | T/C (dose: 600.0 mg/kg/injection, schedule: Q04DX003 (ip), vehicle: DMSO): 33 % of control

O=NN(CCCl)C(=O)NCCO
T/C (dose: 3.13 mg/kg/injection, schedule: Q04DX003 (sc), vehicle: water): 82 % of control | T/C (dose: 6.25 mg/kg/injection, schedule: Q04DX003 (sc), vehicle: water): 38 % of control | T/C (dose: 12.5 mg/kg/injection, schedule: Q04DX003 (sc), vehicle: water): 7 % of control

Nc1nc(N)c2cc(CNc3ccc(C(=O)NC(CC(=O)O)CC(=O)O)cc3)ccc2n1
T/C (dose: 150.0 mg/kg/injection, schedule: Q04DX003 (sc), vehicle: Klucel (hydroxypropylcellulose) (HPC)): 103 % of control | T/C [1]: 86 % of control | T/C [2]: 91 % of control | T/C [3]: 101 % of control

COC(=O)Nc1cn2cc(C(=O)c3cccs3)ccc2n1
T/C [1]: 70 % of control | T/C [2]: 74 % of control | T/C [3]: 102 % of control | T/C (dose: 2400.0 mg/kg/injection, schedule: Q04DX003 (sc), vehicle: Klucel (hydroxypropylcellulose) (HPC)): 96 % of control

COc1cc2oc3c(C)c(=O)cc4oc(-c5ccccc5)cc(c2c2c1CCC(c1ccccc1)O2)c43 (stereo unspecified)
T/C (dose: 7.0 mg/kg/injection, schedule: Q04DX003 (ip), vehicle: Klucel (hydroxypropylcellulose) (HPC)): 88 % of control | T/C (dose: 14.0 mg/kg/injection, schedule: Q04DX003 (ip), vehicle: Klucel (hydroxypropylcellulose) (HPC)): 82 % of control | T/C (dose: 37.5 mg/kg/injection, schedule: Q04DX003 (ip), vehicle: saline with Tween-80): 111 % of control | T/C (dose: 56.0 mg/kg/injection, schedule: Q04DX003 (ip), vehicle: Klucel (hydroxypropylcellulose) (HPC)): 107 % of control | T/C (dose: 75.0 mg/kg/injection, schedule: Q04DX003 (ip), vehicle: saline with Tween-80): 77 % of control | T/C (dose: 150.0 mg/kg/injection, schedule: Q04DX003 (ip), vehicle: saline with Tween-80): 117 % of control | T/C (dose: 300.0 mg/kg/injection, schedule: Q04DX003 (ip), vehicle: saline with Tween-80): 52 % of control

CS(=O)(=O)c1ncc(Br)cn1
T/C (dose: 25.0 mg/kg/injection, schedule: Q01DX010 (sc), vehicle: distilled water + Tween-80): 98 % of control | T/C (dose: 200.0 mg/kg/injection, schedule: Q01DX010 (sc), vehicle: distilled water + Tween-80): 118 % of control

C/C=C/C=C\C=C/C(O)CC(OP(=O)(O)O)C(C)(O)/C=C/C1CC=CC(=O)O1 (stereo unspecified)
T/C (dose: 6.0 mg/kg/injection, schedule: Q04DX003 (ip), vehicle: water): 86 % of control | T/C (dose: 12.0 mg/kg/injection, schedule: Q04DX003 (ip), vehicle: water): 56 % of control | T/C (dose: 24.0 mg/kg/injection, schedule: Q04DX003 (ip), vehicle: water): 50 % of control

C=C(C)C1C2CC3(C)C4(CO4)C4OC4C3(O)C1C(=O)O2 (stereo unspecified)
T/C (dose: 0.15 mg/kg/injection, schedule: Q04DX003 (ip), vehicle: Klucel (hydroxypropylcellulose) (HPC)): 116 % of control | T/C (dose: 0.31 mg/kg/injection, schedule: Q04DX003 (ip), vehicle: Klucel (hydroxypropylcellulose) (HPC)): 86 % of control | T/C (dose: 0.62 mg/kg/injection, schedule: Q04DX003 (ip), vehicle: Klucel (hydroxypropylcellulose) (HPC)): 106 % of control
